Experiments:
Mu-type opioid receptor [1] = molecular target: T1, Mu-type opioid receptor (Cavia porcellus, UniProt P97266); assay: Binding affinity was determined against Mu opioid receptor using [3H]-Naltrexone as radioligand
[2] = molecular target: T2, Kappa-type opioid receptor (Cavia porcellus, UniProt P41144); assay: Binding affinity was determined as ability to displace [3H]-U-69, radioligand from Opioid receptor kappa 1
[3] = molecular target: Delta-type opioid receptor (Rattus norvegicus, UniProt P33533); assay: Binding affinity was determined as ability to displace [3H]DADLE radioligand from Opioid receptor delta 1
[4] = molecular target: T2, Kappa-type opioid receptor; assay: Compound was tested for the inhibition of [35S]GTP-gamma-S, binding Opioid receptor kappa 1; type: functional
Mu-type opioid receptor [5] = molecular target: Mu-type opioid receptor (Rattus norvegicus, UniProt P33535); assay: Binding affinity was determined as ability to displace [3H]DAMGO radioligand from Mu opioid receptor
Mu-type opioid receptor [6] = molecular target: T1, Mu-type opioid receptor; assay: Compound was tested for the inhibition of [35S]GTP-gamma-S, binding in Guinea pig Caudate stimulated by the opioid receptor agonist Mu-DAMGO; type: functional
[7] = molecular target: T2, Kappa-type opioid receptor; assay: Compound was tested for the inhibition of [35S]GTP-gamma-S, binding to Opioid receptor kappa 1; type: functional

T1 sequence (P97266 whole entry): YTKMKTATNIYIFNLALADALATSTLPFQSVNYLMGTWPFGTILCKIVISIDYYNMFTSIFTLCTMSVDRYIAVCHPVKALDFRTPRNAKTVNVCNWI
T2 sequence (P41144 whole entry): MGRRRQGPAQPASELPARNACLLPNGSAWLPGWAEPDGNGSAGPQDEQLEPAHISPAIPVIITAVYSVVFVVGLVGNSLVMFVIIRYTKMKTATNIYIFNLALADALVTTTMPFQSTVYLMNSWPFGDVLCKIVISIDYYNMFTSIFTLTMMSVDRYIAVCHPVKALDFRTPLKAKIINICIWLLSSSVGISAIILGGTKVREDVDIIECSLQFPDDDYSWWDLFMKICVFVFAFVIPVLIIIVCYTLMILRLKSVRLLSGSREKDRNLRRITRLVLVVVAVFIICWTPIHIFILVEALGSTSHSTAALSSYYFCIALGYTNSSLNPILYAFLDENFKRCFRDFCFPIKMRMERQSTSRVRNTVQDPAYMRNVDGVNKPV
Sequence of Delta-type opioid receptor (P33533 whole entry): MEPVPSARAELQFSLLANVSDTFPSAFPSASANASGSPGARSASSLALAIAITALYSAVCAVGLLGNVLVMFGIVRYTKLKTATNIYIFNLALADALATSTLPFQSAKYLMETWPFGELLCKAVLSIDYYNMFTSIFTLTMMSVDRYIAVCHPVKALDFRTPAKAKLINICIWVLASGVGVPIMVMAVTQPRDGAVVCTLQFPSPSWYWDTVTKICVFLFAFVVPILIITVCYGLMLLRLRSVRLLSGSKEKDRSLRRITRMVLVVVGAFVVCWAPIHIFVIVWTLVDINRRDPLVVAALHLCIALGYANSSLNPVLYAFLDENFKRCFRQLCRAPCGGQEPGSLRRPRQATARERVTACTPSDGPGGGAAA
Sequence of Mu-type opioid receptor (Rattus norvegicus, UniProt P33535) (P33535 whole entry): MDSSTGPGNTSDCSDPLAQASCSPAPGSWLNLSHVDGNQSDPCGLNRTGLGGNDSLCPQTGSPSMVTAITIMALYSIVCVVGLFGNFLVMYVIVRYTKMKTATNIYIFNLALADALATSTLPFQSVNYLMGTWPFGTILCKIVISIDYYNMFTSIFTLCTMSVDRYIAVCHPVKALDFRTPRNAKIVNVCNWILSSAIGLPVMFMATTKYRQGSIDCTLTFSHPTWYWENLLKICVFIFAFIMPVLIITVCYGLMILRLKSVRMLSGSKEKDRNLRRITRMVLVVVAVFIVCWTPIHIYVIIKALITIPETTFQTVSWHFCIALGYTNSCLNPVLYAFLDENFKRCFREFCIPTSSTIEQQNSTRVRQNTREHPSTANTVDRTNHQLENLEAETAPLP

SMILES: C[C@H]1CN(C)CC[C@@]1(C)c1cccc(O)c1
- Ki (Mu-type opioid receptor [1]): 80 nM

SMILES: C[C@]12Cc3ccccc3C[C@@]1(c1cccc(O)c1)CCN(CCc1ccccc1)C2
- Ki [2]: 9.8 nM
- Ki [3]: 1270 nM
- Ki [4]: 6.61 nM
- Ki (Mu-type opioid receptor [5]): 11.2 nM
- Ki (Mu-type opioid receptor [6]): 10 nM

SMILES: CN1CC[C@]2(c3cccc(O)c3)Cc3ccccc3C[C@]2(C)C1
- Ki [2]: 166 nM
- Ki [3]: > 5710 nM
- Ki (Mu-type opioid receptor [5]): 297 nM
- Ki (Mu-type opioid receptor [6]): 119 nM
- Ki [7]: 52.6 nM

From ChEMBL document CHEMBL1130663, “N-substituted octahydro-4a-(3-hydroxyphenyl)-10a-methyl-benzo[g]isoquinolines are opioid receptor pure antagonists” (Bioorg Med Chem Lett, 1998)
